Reference: patent US5965088A, “Method for providing rapid disinfection of contact lenses” (priority 1997, dated 1999)
“And” between values parts separate entries of the source, which are not always exact repeats. Equal values may be shown once.

Tested on: rabbit eye (cornea, iris, conjunctivae)
Test: Ocular irritation screening study in the rabbit (Draize score, soaked soft lenses)
Type: in vivo
Parameters: key to Draize macroscopic ocular score (weighted total): Draize weighted total score; max 110 per eye
Conditions: for Draize macroscopic ocular score (weighted total): right (test) eye
Protocol: A series of formulations were prepared in which the amount of alexidine were, respectively 4 ppm (test 1), 6 ppm (test 2), 8 ppm (test 3), 10 ppm (test 4), 12 ppm (test 5), 15 ppm (test 6), 18 ppm (test 7), 22 ppm (test 8), 27 ppm (test 9), 33 ppm (test 10), 40 ppm (test 11) and 50 ppm (test 12). These test solutions of alexidine were used in soaking J&J Sure Vue® (etafilcon A) lenses (soft lenses) in 2.5 mL of solution for 1 week or more in order to reach maximal alexidine uptake.
An ocular irritation screening study was conducted in the rabbit to determine the threshold for ocular irritation. Eyes treated with the lenses were compared to a contralateral control eye. Treated lenses were placed on the right eye of rabbits; control lenses were placed on the left eye. Any lenses displaced from the eyes during the lens wear day were reinserted after rinsing with 0.9% sodium chloride USP solution (SC). Eyes were examined with the aid of a direct light source before lens placement, at 50-70 minutes, 7-8 hours, 23-24 hours, and 30-32 hours after placement. Macroscopic observations were recorded in accordance with criteria in the Draize^* score system. The maximum total score is the sum of all scores obtained for the cornea, iris, and conjunctivae. Total maximum score possible is 110 per eye, 80 with respect to the cornea, 10 with respect to the iris, and 20 with respect to the conjunctivae.
*Draize, J. H., G. Woodward and H. O. Calvery. 1944. Methods for the study of irritation and toxicity of substances applied topically to the skin and mucous membranes. J. Pharmacol. Exp. Ther. 82:377-390.

**Q.** How did the “safety in disinfecting soft lenses” value (4.0 ppm, based on rabbit studies) turn out when `CCCCC(CC)CNC(=N)NC(=N)NCCCCCCNC(=N)NC(=N)NCC(CC)CCCC.Cl.Cl` (centres unmarked) [Alexidine.2HCl, 1,1 '-hexamethylenebis(5-(2-ethylhexyl)-biguanide) dihydrochloride] was run?
**A.** Its value is “very safe for human use in disinfecting soft lenses”.

**Q.** What about the “Draize macroscopic ocular score (weighted total)” value (shortened to “Draize macroscopic ocular score”) (4 ppm, 7-8 hours post lens) of the same compound?
**A.** Its value is 2.

**Q.** And the “Draize macroscopic ocular score” value (4 ppm, 23-24 hours post lens)?
**A.** The value was 2.

**Q.** And the “Draize macroscopic ocular score” value (4 ppm, 30-32 hours post lens)?
**A.** Its value is 2.

**Q.** And the “Draize macroscopic ocular score” value (4 ppm, 50-70 minutes post lens)?
**A.** The value was 2.

**Q.** And the “Draize macroscopic ocular score” value (6 ppm, 7-8 hours post lens)?
**A.** The value was 2.

**Q.** And the “Draize macroscopic ocular score” value (6 ppm, 23-24 hours post lens)?
**A.** Its value is 2.

**Q.** What about the “Draize macroscopic ocular score” value (6 ppm, 30-32 hours post lens) of the same compound?
**A.** Its value is 2.

**Q.** And the “Draize macroscopic ocular score” value (6 ppm, 50-70 minutes post lens)?
**A.** Its value is 2.

**Q.** And the “Draize macroscopic ocular score” value (8 ppm, 7-8 hours post lens)?
**A.** Its value is 2.

**Q.** What about the “Draize macroscopic ocular score” value (8 ppm, 23-24 hours post lens) of the same compound?
**A.** The value was 2.

**Q.** And the “Draize macroscopic ocular score” value (8 ppm, 30-32 hours post lens)?
**A.** The value was 2.

**Q.** And the “Draize macroscopic ocular score” value (8 ppm, 50-70 minutes post lens)?
**A.** The value was 2.

**Q.** And the “Draize macroscopic ocular score” value (10 ppm, 7-8 hours post lens, dihydrochloride)?
**A.** Its value is 4 and 2.

**Q.** What about the “Draize macroscopic ocular score” value (10 ppm, 50-70 minutes post lens) of the same compound?
**A.** The value was 2.

**Q.** And the “Draize macroscopic ocular score” value (12 ppm, 7-8 hours post lens)?
**A.** The value was 2.

**Q.** What about the “Draize macroscopic ocular score” value (12 ppm, 23-24 hours post lens) of the same compound?
**A.** The value was 2.

**Q.** And the “Draize macroscopic ocular score” value (12 ppm, 30-32 hours post lens)?
**A.** The value was 2.

**Q.** And the “Draize macroscopic ocular score” value (12 ppm, 50-70 minutes post lens)?
**A.** Its value is 2.

**Q.** And the “Draize macroscopic ocular score” value (15 ppm, 7-8 hours post lens)?
**A.** The value was 4.

**Q.** What about the “Draize macroscopic ocular score” value (15 ppm, 30-32 hours post lens) of the same compound?
**A.** The value was 2.

**Q.** And the “Draize macroscopic ocular score” value (15 ppm, 50-70 minutes post lens, dihydrochloride)?
**A.** Its value is 2 and 4.

**Q.** What about the “Draize macroscopic ocular score” value (18 ppm, 7-8 hours post lens) of the same compound?
**A.** Its value is 6.

**Q.** What about the “Draize macroscopic ocular score” value (18 ppm, 23-24 hours post lens) of the same compound?
**A.** The value was 2.

**Q.** And the “Draize macroscopic ocular score” value (18 ppm, 30-32 hours post lens)?
**A.** The value was 2.

**Q.** What about the “Draize macroscopic ocular score” value (18 ppm, 50-70 minutes post lens) of the same compound?
**A.** The value was 2.

**Q.** What about the “Draize macroscopic ocular score” value (22 ppm, 7-8 hours post lens) of the same compound?
**A.** Its value is 11.

**Q.** And the “Draize macroscopic ocular score” value (22 ppm, 23-24 hours post lens)?
**A.** Its value is 2.

**Q.** What about the “Draize macroscopic ocular score” value (22 ppm, 30-32 hours post lens) of the same compound?
**A.** The value was 2.

**Q.** And the “Draize macroscopic ocular score” value (22 ppm, 50-70 minutes post lens)?
**A.** The value was 2.

**Q.** And the “Draize macroscopic ocular score” value (27 ppm, 50-70 minutes post lens)?
**A.** The value was 2.

**Q.** And the “conjunctival reaction clearly defined” value (lenses soaked in solution)?
**A.** The value was 15 ppm.

**Q.** And the corneal opacity observed (lenses soaked in solution)?
**A.** Its corneal opacity observed is 27 ppm.

**Q.** What about the iridial involvement observed (lenses soaked in solution) of the same compound?
**A.** The iridial involvement observed was 22 ppm.

**Q.** And the “first signs of increased ocular toxicity (conjunctival reactions)” value (lenses soaked, after 7-8 hours of lens wear)?
**A.** The value was 10 ppm.
